According to patent US20260083865A1, “PROSTATE SPECIFIC MEMBRANE ANTIGEN (PSMA) LIGANDS AND USE THEREOF” (priority 2022, published 2026):
Read-outs that look alike come from different tables or passages of the source. Blank lines part the entries; values can stand above or below the molecule they belong to. Numbered stars: 1 amine (or outer) side, 2 acyl side, 3 side chain; on linkers, the order of the positions; unused ones are H or OH. Bridge positions count the residues as written; N and C are the ends. Square brackets hold non-standard residues; d marks the D form. Peptide text beside a SMILES is read from it. * marks the point of attachment. TtdsdLys(DOTA)NH2 = NC(=O)[C@@H](CCCCNC(=O)CN1CCN(CC(=O)O)CCN(CC(=O)O)CCN(CC(=O)O)CC1)NC(=O)CCC(=O)NCCCOCCOCCOCCCN*; X3 = O=C(O)CN1CCN(CC(=O)O)CCN(CC(=O)NCCCOCCOCCOCCCN*)CCN(CC(=O)O)CC1; DOTA = O=C(O)CN1CCN(CC(=O)O)CCN(CC(=O)*)CCN(CC(=O)O)CC1; Phe(4-CH2COOH) = N[C@@H](Cc1ccc(CC(=O)O)cc1)C(=O)O; Arg(Me) = CNC(=N)NCCC[C@H](N)C(=O)O; 2Pal = N[C@@H](Cc1ccccn1)C(=O)O; X1 = O=C(CC1CCN([*:1])CC1)[*:2]; Cit = NC(=O)NCCC[C@H](N)C(=O)O; Lys(Me) = CNCCCC[C@H](N)C(=O)O; Suc = O=C(CCC(=O)[*:2])[*:1]; Tle = CC(C)(C)[C@H](N)C(=O)O; Nle = CCCC[C@H](N)C(=O)O; Deg = CCC(N)(CC)C(=O)O; Aib = CC(C)(N)C(=O)O

Experiments:
[1] = target: T1, PSMA-expressing C4-2 cells (Homo sapiens, UniProt Q04609); experiment: FACS binding assay (competition with 50 nM PSM-0183); details: read-out: pIC50 [C4-2] CAT (converted)
T1 construct: PSMA-expressing C4-2 cells (ATCC, Cat. No. CRL-3314) were cultured in RPMI-1640; host or cells: C4-2 cells
T1 sequence (Q04609 whole entry): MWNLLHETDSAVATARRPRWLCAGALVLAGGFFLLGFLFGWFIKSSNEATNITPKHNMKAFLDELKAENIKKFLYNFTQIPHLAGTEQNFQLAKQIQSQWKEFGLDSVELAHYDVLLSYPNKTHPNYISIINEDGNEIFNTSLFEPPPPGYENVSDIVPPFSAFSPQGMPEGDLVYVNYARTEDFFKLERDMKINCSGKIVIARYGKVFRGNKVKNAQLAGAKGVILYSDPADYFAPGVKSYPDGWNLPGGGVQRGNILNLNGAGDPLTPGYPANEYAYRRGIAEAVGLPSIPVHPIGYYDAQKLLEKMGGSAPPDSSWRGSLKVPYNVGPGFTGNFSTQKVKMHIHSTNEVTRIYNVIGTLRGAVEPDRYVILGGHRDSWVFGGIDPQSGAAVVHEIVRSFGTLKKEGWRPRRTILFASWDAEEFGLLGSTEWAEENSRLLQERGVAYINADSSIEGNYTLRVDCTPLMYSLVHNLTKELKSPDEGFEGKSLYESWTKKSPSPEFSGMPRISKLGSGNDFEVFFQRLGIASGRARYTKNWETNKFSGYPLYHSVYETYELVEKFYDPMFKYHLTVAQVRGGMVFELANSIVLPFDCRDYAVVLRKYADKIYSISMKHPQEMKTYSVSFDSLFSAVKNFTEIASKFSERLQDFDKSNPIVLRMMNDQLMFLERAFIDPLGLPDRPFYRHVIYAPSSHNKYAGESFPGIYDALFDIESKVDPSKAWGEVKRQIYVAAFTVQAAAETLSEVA
Summary of the method: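 C4-2 cells were incubated 1 h at 4 °C with 50 nM AF488-labelled peptide PSM-0183 plus increasing test compound concentrations, then washed twice in ice-cold buffer. Median fluorescence in the AF488 channel was read by flow cytometry. IC50/pIC50 was derived by 4PL fitting of MFI versus concentration.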

[2] = target: T2, Fc-fusion protein of human PSMA (hPSMA-Fc) (Homo sapiens, UniProt Q04609); experiment: Surface plasmon resonance assay (Biacore T200, single cycle kinetic); assay type: binding; details: read-out: pKD CAT (converted)
T2 construct: purchased Acro Biosystems PSA-H5264
T2 sequence (Q04609 44-750 limits assumed): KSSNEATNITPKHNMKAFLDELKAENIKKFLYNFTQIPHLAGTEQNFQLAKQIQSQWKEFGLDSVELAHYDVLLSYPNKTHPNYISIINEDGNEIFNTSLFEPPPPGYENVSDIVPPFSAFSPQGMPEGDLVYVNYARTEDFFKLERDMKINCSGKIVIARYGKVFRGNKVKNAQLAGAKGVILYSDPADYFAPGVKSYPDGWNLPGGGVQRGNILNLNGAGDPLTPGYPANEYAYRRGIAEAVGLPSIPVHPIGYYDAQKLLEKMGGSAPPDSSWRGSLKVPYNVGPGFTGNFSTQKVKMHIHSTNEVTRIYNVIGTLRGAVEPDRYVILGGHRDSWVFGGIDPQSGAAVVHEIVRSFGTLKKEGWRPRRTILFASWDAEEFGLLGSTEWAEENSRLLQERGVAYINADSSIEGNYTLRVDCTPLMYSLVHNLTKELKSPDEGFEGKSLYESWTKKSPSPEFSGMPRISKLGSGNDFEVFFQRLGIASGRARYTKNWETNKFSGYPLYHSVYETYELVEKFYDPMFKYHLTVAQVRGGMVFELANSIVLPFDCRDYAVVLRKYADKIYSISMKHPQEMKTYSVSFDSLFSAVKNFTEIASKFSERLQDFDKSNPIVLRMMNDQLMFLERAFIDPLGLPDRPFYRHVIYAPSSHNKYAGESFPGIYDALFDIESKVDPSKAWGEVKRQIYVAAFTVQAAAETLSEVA
Summary of the method: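 hPSMA-Fc was captured (~1000 RU) on an Fc-binding-peptide CM5 chip, and compounds were run in single cycle kinetic mode at 25° C in HBST with 0.1% DMSO. Double-blank-corrected sensorgrams were fitted to a 1:1 Langmuir model to give KD, reported as pKD.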

[3] = FACS binding, C4-2 cells, competition with 50 nM PSM-0183, category
[4] = SPR, hPSMA-Fc, single cycle kinetic, 25° C., category
[5] = FACS binding, PSMA-expressing C4-2 cells, pIC50 category
[6] = PSMA SPR assay, hPSMA-Fc, 25° C., pKD category
[7] = pIC50 category of FACS binding, C4-2 cells
[8] = pKD category for PSMA SPR activity assay, hPSMA-Fc, 25° C.

Compound: CCC(CC)(NC(=O)[C@@H](NC(C)=O)[C@@H](C)O)C(=O)N[C@@H](Cc1ccccc1)C(=O)N[C@H]1CSSC[C@@H](C(=O)N[C@H](C(=O)N[C@H](C(N)=O)[C@@H](C)O)C(C)(C)C)NC(=O)[C@H](CC(N)=O)NC(=O)C(C)(C)NC(=O)[C@H](CCCNC(=N)N)NC(=O)[C@H](CCCCN)NC1=O [PSM-0187, Ac-Thr-Deg-Phe-[Cys-Lys-Arg-Aib-Asn-Cys]-Tle-Thr-NH2] (Ac-T[Deg]FCKR[Aib]NC[Tle]T-NH2; disulfide 4-9)
- IC50 [1, 3]: < 200 nM
- Kd [2, 4]: < 12.6 nM

Compound: CC(=O)N[C@H](C(=O)N[C@@H](C)C(=O)N[C@@H](Cc1ccccc1)C(=O)N[C@H]1CSSC[C@@H](C(=O)N[C@@H](CC(C)C)C(=O)N[C@H](C(=O)N[C@@H](CC(=O)O)C(=O)NCCCOCCOCCOCCCNC(=O)CCC(=O)N[C@H](CCCCNC(=O)CN2CCN(CC(=O)O)CCN(CC(=O)O)CCN(CC(=O)O)CC2)C(N)=O)[C@@H](C)O)NC(=O)[C@H](CC(N)=O)NC(=O)[C@H](C)NC(=O)[C@H](CCCNC(=N)N)NC(=O)[C@H](CCCCN)NC1=O)[C@@H](C)O [PSM-0330, Ac-Thr-Ala-Phe-[Cys-Lys-Arg-Ala-Asn-Cys]-Leu-Thr-Asp-Ttds-lys(DOTA)-NH2] (Ac-TAFCKRANCLTD-{TtdsdLys(DOTA)NH2}; disulfide 4-9)
- IC50 [1, 5]: 200 to 1260 nM
- Kd [2, 6]: 12.6 to 126 nM

Compound: CCCC[C@H](NC(=O)[C@@H]1CSSC[C@H](NC(=O)[C@H](Cc2ccccc2)NC(=O)[C@H](C)NC(=O)[C@@H](NC(C)=O)[C@@H](C)O)C(=O)N[C@@H](CCCCN)C(=O)N[C@@H](CCCNC(=N)N)C(=O)N[C@@H](C)C(=O)N[C@@H](CC(N)=O)C(=O)N1)C(=O)N[C@@H](C)C(=O)N[C@@H](CC(=O)O)C(N)=O [PSM-0476, Ac-Thr-Als-Phe-[Cys-Lys-Arg-Ala-Asn-Cys]-Nle-Als-Asp-NH2] (Ac-TAFCKRANC[Nle]AD-NH2; disulfide 4-9)
- IC50 [1, 7]: 200 to 1260 nM
- Kd [2, 8]: 126 to 501 nM

Now from value to molecule:

- IC50 ([1]; FACS binding, C4-2 cells, category): > 3160 nM
- Kd ([2]; PSMA SPR assay, category): > 501 nM
Compound: C[C@@H](O)[C@H](NC(=O)[C@@H](NC(=O)[C@@H]1CSSC[C@H](NC(=O)[C@H](Cc2ccc(CC(=O)O)cc2)NC(=O)C(C)(C)NC(=O)[C@@H](NC(=O)CC2CCN(C(=O)CN3CCN(CC(=O)O)CCN(CC(=O)O)CCN(CC(=O)O)CC3)CC2)[C@@H](C)O)C(=O)N[C@@H](CCCCN)C(=O)N[C@@H](CCCNC(=N)N)C(=O)NC(C)(C)C(=O)N[C@@H](CC(N)=O)C(=O)N1)C(C)(C)C)C(N)=O [PSM-0566, DOTA-Cmp-Thr-Aib-Fac-[Cys-Lys-Arg-Aib-Asn-Cys]-Tle-Thr-NH2] ({DOTA}-[X1]T[Aib][Phe(4-CH2COOH)]CKR[Aib]NC[Tle]T-NH2; disulfide 5-10)

- IC50 [1, 3]: 200 to 1260 nM
- Kd [2, 4]: > 501 nM
Compound: CC(=O)N[C@H](C(=O)NC(C)(C)C(=O)N[C@@H](Cc1ccccc1)C(=O)N[C@H]1CSSC[C@@H](C(=O)N[C@H](C(=O)N[C@H](C(=O)N2CCC(CC(=O)N[C@H](CCCCNC(=O)CN3CCN(CC(=O)O)CCN(CC(=O)O)CCN(CC(=O)O)CC3)C(N)=O)CC2)[C@@H](C)O)C(C)(C)C)NC(=O)[C@H](CC(N)=O)NC(=O)C(C)(C)NC(=O)[C@H](CCCNC(N)=O)NC(=O)[C@H](CCCCN)NC1=O)[C@@H](C)O [PSM-0252, Ac-Thr-Aib-Phe-[Cys-Lys-Cit-Aib-Asn-Cys]-Tle-Thr-Cmp-lys(DOTA)-NH2] (Ac-T[Aib]FCK[Cit][Aib]NC[Tle]T[X1][dK](DOTA)-NH2; disulfide 4-9)

- IC50 [1, 7]: 200 to 1260 nM
- Kd [2, 8]: 126 to 501 nM
Compound: CNCCCC[C@@H]1NC(=O)[C@@H](NC(=O)[C@H](Cc2ccccn2)NC(=O)C(C)(C)NC(=O)[C@@H](NC(=O)CC2CCN(C(=O)CN3CCN(CC(=O)O)CCN(CC(=O)O)CCN(CC(=O)O)CC3)CC2)[C@@H](C)O)CSSC[C@@H](C(=O)N[C@H](C(N)=O)C(C)(C)C)NC(=O)[C@H](CC(N)=O)NC(=O)C(C)(C)NC(=O)[C@H](CCCNC(=N)NC)NC1=O [PSM-0409, DOTA-Cmp-Thr-Aib-Opa-[Cys-Lys(Me)-Arg(Me)-Aib-Asn-Cys]-Tle-NH2] ({DOTA}-[X1]T[Aib][2Pal]C[Lys(Me)][Arg(Me)][Aib]NC[Tle]-NH2; disulfide 5-10)

- IC50 [1, 5]: < 200 nM
- Kd [2, 6]: 12.6 to 126 nM
Compound: C[C@@H]1NC(=O)[C@H](CCCNC(=N)N)NC(=O)[C@H](CCCCN)NC(=O)[C@@H](NC(=O)[C@H](Cc2ccccc2)NC(=O)[C@H](C)NC(=O)[C@@H](NC(=O)CCC(=O)NCCCOCCOCCOCCCNC(=O)CN2CCN(CC(=O)O)CCN(CC(=O)O)CCN(CC(=O)O)CC2)[C@@H](C)O)CSSC[C@@H](C(=O)N[C@H](C(=O)N[C@H](C(=O)N[C@@H](CC(=O)O)C(N)=O)[C@@H](C)O)C(C)(C)C)NC(=O)[C@H](CC(N)=O)NC1=O [PSM-0342, DOTA-Ttds-Thr-Ala-Phe-[Cys-Lys-Arg-Ala-Asn-Cys]-Tle-Thr-Asp-NH2] ({X3-Suc}-TAFCKRANC[Tle]TD-NH2; disulfide 4-9)
